Assay results from US9096687B2, “Inhibition of inflammation using antagonists of MUC1” (DANA-FARBER CANCER INSTITUTE, INC., priority 2009, dated 2015).
Square brackets hold non-standard residues; d marks the D form. Ends that are not written are not given here.

How the values were obtained:
[1] = test system: multiple carcinoma cell lines; assay: Growth and killing of carcinoma cell lines by L-amino acid MUC1 C-terminal peptides; assay type: cell-based
From the text: GO-203 analogs. The inventors' recent studies have shown that a MUC1 C-terminal peptide (CQCRRKNYGQLDIFP; SEQ ID NO:3) is active in inhibiting growth of multiple carcinoma cell lines. […] However, these MUC1-C-terminal peptides consists of L-amino acids. […] Consequently, they have generated an all-dextro form of the above described shorter MUC1 C-terminal peptide, in which the L-amino acids were changed to D-amino acids (GO-203). Moreover, to determine the minimum amino acid residues from the MUC1-C-terminal region that are required to retain the cell killing activity, they have also generated many different versions of GO-203 as described in FIG. 15.

[2] = test system: carcinoma cells overexpressing MUC1; assay: Growth arrest and necrosis of cells exposed to peptide; assay type: cell-based; settings: for growth arrest and induction of necrosis: exposure of cells
From the text: (§1) Previous Studies. Overexpression of MUC1 is sufficient for the induction of anchorage-independent growth and tumorigenicity (Li et al., 2003a; Huang et al., 2003; Huang et al., 2005). […] MUC1 forms oligomers and the CQC motif is necessary for this oligomerization (Leng et al., 2007). Moreover, oligomer formation is necessary for targeting of the MUC1-C subunit to the nucleus (Leng et al., 2007). The inventors synthesized a MUC1-derived peptide that contains the CQC motif and a poly-Arg cell delivery domain for entry into cells.

[3] = biological target: T1, interaction between MUC1-CD and STAT3 (Homo sapiens, UniProt P15941); assay: In vitro binding of GST-STAT3 to purified MUC1-CD; settings: 1 h at room temperature
T1 construct: a GST fusion protein containing the 72 amino acid MUC1-CD; GST (cleaved yes); made in house
T1 sequence (P15941 1184-1255): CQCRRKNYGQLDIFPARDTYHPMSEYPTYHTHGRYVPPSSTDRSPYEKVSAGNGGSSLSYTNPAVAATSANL

MUC1-CD oligomerization = biological target: T2, MUC1-CD oligomerization (Homo sapiens, UniProt P15941); assay: Oligomerization of MUC1-CD in vitro; assay type: biochemical
T2 construct: contains a 72-amino acid cytoplasmic domain (MUC1-CD)
T2 sequence (P15941 1184-1255): T1 sequence (P15941 1184-1255)
From the text: as §1

[4] = biological target: T3, interaction between MUC1-CD and NF-κB p65 (Homo sapiens, UniProt P15941); assay: In vitro binding of GST-MUC1-CD to purified NF-κB p65 (glutathione bead adsorbates, anti-p65 immunoblot); settings: 1 h at room temperature
T3 construct: a GST fusion protein containing the 72 amino acid MUC1-CD; made in house
T3 sequence (P15941 1184-1255): T1 sequence (P15941 1184-1255)
Experimental: In Vitro Binding Assays. GST, GST-MUC1-CD, GST-MUC1-CD(1-45) and GST-MUC1-CD(46-72) were prepared as described (Ahmad et al., 2007) and incubated with p65 and certain p65 deletion mutants. Purified GST-MUC1-CD was cleaved with thrombin to remove the GST moiety. GST-IκBα (Millipore, Billerica, Mass.) was incubated with p65(186-306) for 2 h at 25° C. in the absence and presence of purified MUC1-CD. Adsorbates to glutathione-conjugated beads were analyzed by immunoblotting.

[5] = biological target: T4, IL-6-induced interaction between MUC1-C and STAT3 (Homo sapiens, UniProt P15941); assay: Anti-STAT3 co-immunoprecipitation from IL-6-stimulated MCF-10A cells; assay type: cell-based; parameters: dose or concentration left out as unconfirmed; settings: peptide added each 24 h for 72 h
T4 construct: C-terminal subunit (MUC1 C-ter, MUC1-C), which includes a 58 amino acid extracellular region; endogenous in cells; host or cells: MCF-10A
T4 sequence (P15941 1098-1255 limits assumed): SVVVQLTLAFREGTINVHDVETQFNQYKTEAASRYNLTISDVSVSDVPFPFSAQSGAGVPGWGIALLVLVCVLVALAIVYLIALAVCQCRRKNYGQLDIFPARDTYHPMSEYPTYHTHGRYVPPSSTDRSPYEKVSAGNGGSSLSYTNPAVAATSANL

[6] = test system: ZR-75-1 breast carcinoma cells; assay: Proliferation of ZR-75-1 breast carcinoma cells (trypan blue exclusion); assay type: cell-based, Human; settings: 5 μM every day for 4 days
Experimental: FIG. 17: Effect of different MUC1-CD CQC-region peptides on the growth of hormone-dependent breast carcinoma cells. To determine whether exposure to different MUC1-CD CQC-region containing peptides affect growth, ZR-75-1 breast carcinoma cells were treated with 5 μM of different peptides for 4 days and monitored for cell proliferation.
FIG. 21: Effect of Shorter GO-203 peptides on proliferation of ZR-75-1 Breast Cancer Cells. Human ZR-75-1 breast cancer cells were grown in RPMI1640 supplemented with 10% heat-inactivated fetal bovine serum, 100 units/ml penicillin, 100 μg/ml streptomycin. Cells were treated with different peptides at 5 μM every day for four days and cell viability was determined by trypan blue exclusion.
Multiple tumor cell lines (ZR-75-1 Hormone-dependent Breast Carcinoma; MDA-MB-231 Triple-Negative Breast Carcinoma; A549 Non-small Cell Lung Carcinoma; H-1975 Non-small Cell Lung Carcinoma) were grown in RPMI-1640 supplemented with 10% heat-inactivated fetal bovine serum, 100 units/mL penicillin and 100 μg/mL streptomycin and 2 mmol/L L-glutamine. Cells were treated separately with 5 μM of different analogs of GO-203 (FIG. 15) for 3 to 7 days and viability was determined by trypan blue exclusion. The proliferation of different cell lines was compared with cells treated with vehicle only.

[7] = biological target: T5, TNFα-induced interaction between MUC1-C and NF-κB p65 (Homo sapiens, UniProt P15941); assay: Anti-p65 co-immunoprecipitation from TNFα-stimulated MCF-10A cells; assay type: cell-based; settings: 5 μM peptide added each 24 h for 72 h
T5 construct: C-terminal subunit (MUC1 C-ter, MUC1-C), which includes a 58 amino acid extracellular region; endogenous in cells; host or cells: MCF-10A
T5 sequence (P15941 1098-1255 limits assumed): T4 sequence (P15941 1098-1255 limits assumed)
Experimental: Cell Culture. Human ZR-75-1 breast cancer and U-937 leukemia cells were grown in RPMI 1640 medium containing 10% heat-inactivated fetal bovine serum (FBS), 100 units/ml penicillin, 100 μg/ml streptomycin and 2 mM L-glutamine. Human HeLa cervical and MCF-7 breast carcinoma cells were grown in Dulbecco's modified Eagle's medium with 10% FBS, antibiotics and L-glutamine. Human MCF-10A breast epithelial cells were grown in mammary epithelial cell growth medium (MEGM; Lonza, Walkersville, Md.) and treated with 20 ng/ml TNFα (BD Biosciences, San Jose, Calif.). Transfection of the MCF-10A cells with siRNA pools (Dharmacon, Lafayette, Colo.) was performed in the presence of Lipofectamine 2000 (Invitrogen, Carlsbad, Calif.). Cells were treated with 5 μM MUC1/CQC and MUC1/AQA peptides synthesized by the MIT Biopolymer Laboratory (Cambridge, Mass.).
Immunoprecipitation and immunoblotting. Lysates from sub-confluent cells were prepared as described (Ren et al., 2004). Soluble proteins were precipitated with anti-NF-κB p65 (Santa Cruz Biotechnology, Santa Cruz, Calif.). […] Immune complexes were detected with horseradish peroxidase-conjugated secondary antibodies (GE Healthcare Biosciences, Piscataway, N.J.) and enhanced chemiluminescence (GE Healthcare).

[8] = test system: MUC1-C and NF-κB p65 occupancy of the NF-κB binding motif in the MUC1 promoter; assay: ChIP of MUC1 promoter NF-κB binding motif in TNFα-stimulated MCF-10A cells; settings: 5 μM peptide added each 24 h for 72 h
Experimental: MCF-10A cells were left untreated or stimulated with TNFα in the presence of 5 μM MUC1/CQC or MUC1/AQA peptide added each 24 h for 72 h. […] (FIGS. 6B and 6C) MCF-10A cells were left untreated or stimulated with TNFα in the presence of 5 μM MUC1/CQC or MUC1/AQA peptide added each 24 h for 72 h. Soluble chromatin was precipitated with anti-MUC1-C (left) or anti-p65 (right) and then analyzed for MUC1 NF-κB binding motif promoter sequences (FIG. 6B).
ChIP Assays. Soluble chromatin was prepared as described (Wei et al., 2006) and precipitated with anti-p65, anti-MUC1-C or a control non-immune IgG. […] For PCR, 2 μl from a 50 μl DNA extraction was used with 25-35 cycles of amplification.

[9] = test system: STAT3 and MUC1-C on the MUC1 promoter; assay: ChIP of MUC1 promoter STAT binding site in IL-6-stimulated MCF-10A cells; assay type: cell-based, Human; settings: 5 mM peptide added each 24 h for 72 h
[10] = test system: MUC1-C and STAT3 occupancy of the MUC1 promoter; assay: Constitutive occupancy of the MUC1 promoter in breast cancer cells; assay type: cell-based
Experimental: (§2) MUC1-C Promotes STAT3-Mediated Transcription. […] In concert with these observations, silencing MUC1 in breast cancer cells was associated with decreases in (i) constitutive STAT3 occupancy on the STAT binding site, and (ii) constitutive activation of the MUC1 promoter. To provide further support for an auto-inductive loop, studies were performed with GO-201, an inhibitor of MUC1-C oligomerization (Raina, 2009). […] Moreover, GO-201 blocked IL-6 induced activation of the MUC1 promoter. […] These findings thus provide support for the potential importance of the MUC1-C-STAT3 interaction in targeting STAT3 to the MUC1 promoter and promoting activation of the MUC1 gene in an auto-inductive loop (FIG. 7D).

pMUC1-Luc reporter = pMUC1-Luc reporter assay in IL-6-stimulated MCF-10A cells; assay type: cell-based, Human
Experimental: Luciferase Assays. Cells were transfected with NFκB-Luc (Ahmad et al., 2007) or pMUC1-Luc (Yin et al., 2003) and SV-40-Renilla-Luc (Promega, Madison, Wis.) in the presence of Lipofectamine. After 48 h, the cells were lysed in passive lysis buffer. Lysates were analyzed for firefly and Renilla luciferase activities using the dual luciferase assay kit (Promega).

tumor growth = assay: Administration to tumor bearing mice
From the text: as §1

[11] = test system: MUC1-C levels in the nucleus; assay: MUC1-C levels in the nucleus after peptide uptake; assay type: cell-based; settings: after uptake of the peptide
From the text: as §1

MUC1 promoter = assay: Constitutive activation of the MUC1 promoter in breast cancer cells; assay type: cell-based
Experimental: as §2

[12] = test system: TNFα-induced MUC1 and Bcl-xL expression; assay: Immunoblot of lysates from TNFα-stimulated MCF-10A cells; assay type: cell-based, Human; settings: 5 μM peptide added each 24 h for 72 h
Experimental: Immunoprecipitation and immunoblotting. Lysates from sub-confluent cells were prepared as described (Ren et al., 2004). Soluble proteins were precipitated with anti-NF-κB p65 (Santa Cruz Biotechnology, Santa Cruz, Calif.). The immunoprecipitates and cell lysates were subjected to immunoblotting with anti-p65, anti-p65 (180-306) (Millipore, Billerica, Mass.) anti-MUC1-C (Ab5; Lab Vision, Fremont, Calif.), anti-IκBα (Santa Cruz Biotechnology), anti-Bcl-xL (Santa Cruz Biotechnology) and anti-α-actin (Sigma, St. Louis, Mo.). Immune complexes were detected with horseradish peroxidase-conjugated secondary antibodies (GE Healthcare Biosciences, Piscataway, N.J.) and enhanced chemiluminescence (GE Healthcare).

severe sepsis = settings: decreased from about 31%; cited from earlier work
[13] = test system: H-1975 non-small cell lung carcinoma cell line; settings: H-1975 cells, 5 μM, 3 days
Experimental: H-1975 non-small cell lung carcinoma cell line was grown in DMEM with 10% heat-inactivated fetal bovine serum with 100 units/mL penicillin, 100 μg/ml streptomycin and 2 mmol/L L-glutamine. Cells were re-seeded one day before treatments. Cells were treated with 5 μM GO-200-2B for 3 days and cell viability was determined by trypan blue exclusion.
Moreover, another non-small cell lung carcinoma cell line, H-1975, was treated with 5 μM GO-200-2B for 3 days and monitored for cell growth as well as cell death.

[14] = tumor bearing mice, 10 and 30 mg/kg/d for 21 d

## CQCRRKNYGQLDIFP
[1]
  inhibiting growth of multiple carcinoma cell lines: active

## MUC1/AQA: control peptide in which the CQC motif was mutated to AQA (SEQ ID NO:62), with poly D-arginine transduction domain (AQARRKNYGQLDIFP; also: poly D-arginine transduction domain, not placed) [reference compound]
[2]
  growth arrest and induction of necrosis: not
[3]
  interaction between MUC1-CD and STAT3 in vitro: not
MUC1-CD oligomerization
  oligomerization of MUC1-CD in vitro: did not
[4]
  interaction between MUC1-CD and NF-κB p65 in vitro: little if any effect
[5]
  IL-6-induced interaction between MUC1-C and STAT3: not

## GO-208: shorter GO-203 peptide, SEQ ID NO:50 (CQCRR)
[6]
  growth of ZR-75-1 breast carcinoma cells: significant inhibition of growth

## MUC1/CQC: peptide corresponding to MUC1-CD(1-15) (SEQ ID NO:3, CQCRRKNYGQLDIFP) with poly D-arginine transduction domain; inhibitor of MUC1-C oligomerization (cysteine pairing not given here; also: poly D-arginine transduction domain, not placed)
[7]
  TNFα-induced interaction between MUC1-C and NF-κB p65: blocked
[8]
  TNFα-induced MUC1-C and NF-κB p65 occupancy of the NF-κB binding motif: decreased
[2]
  selectivity of dominant-negative activity: selective for carcinoma cells overexpressing MUC1
  growth arrest and induction of necrosis: growth arrest and the induction of necrosis
[9]
  IL-6-induced targeting of STAT3 and MUC1-C to the MUC1 promoter: inhibited
[3]
  interaction between MUC1-CD and STAT3 in vitro: blocked
MUC1-CD oligomerization
  oligomerization of MUC1-CD in vitro: inhibits
[10]
  constitutive occupancy of the MUC1 promoter by MUC1-C and STAT3: inhibits
pMUC1-Luc reporter
  IL-6-induced activation of the pMUC1-Luc reporter: attenuated
Tumor growth; 50 mg/kg/d for 7 d
  tumor growth following treatment: tumor growth remains arrested for extended periods
Tumor growth; [14]
  tolerability: well-tolerated without apparent acute toxicities
  tumor growth: effective in abrogating tumor growth
[4]
  interaction between MUC1-CD and NF-κB p65 in vitro: blocked the interaction
[11]
  MUC1-C levels in the nucleus: down-regulation
MUC1 promoter
  constitutive activation of the MUC1 promoter: inhibits
[5]
  IL-6-induced interaction between MUC1-C and STAT3: blocked
[12]
  TNFα-induced Bcl-xL expression: attenuated
  TNFα-induced MUC1 expression: decreased

## GO-203: all-dextro form of the shorter MUC1 C-terminal peptide CQCRRKN (SEQ ID NO:53), L-amino acids changed to D-amino acids ([dC][dQ][dC][dR][dR][dK][dN]; cysteine pairing not given here)
[6]
  growth of ZR-75-1 breast carcinoma cells: significant inhibition of growth

## drotrecogin alfa
Severe sepsis
  mortality: about 25%

## GO-207: shorter GO-203 peptide, SEQ ID NO:4 (CQCRRK)
[6]
  growth of ZR-75-1 breast carcinoma cells: significant inhibition of growth

## CC(=O)N[C@@H](C)C(=O)N[C@@H](CCCCN)C(=O)N[C@@H](CCCCN)C(=O)N[C@@H](Cc1ccc(O)cc1)C(=O)N[C@@H](CC(C)C)C(=O)N[C@@]1(C)CCCC=CCCCC2(CCCC=CCCC[C@@](C)(C(=O)N[C@@H](CCCNC(=N)N)C(=O)N[C@@H](CCCCN)C(=O)N[C@@H](CC(N)=O)C(=O)N[C@@H](Cc3ccc(O)cc3)C(N)=O)NC(=O)[C@H](CS)NC(=O)[C@H](CCC(N)=O)NC(=O)[C@H](CS)NC2=O)NC(=O)[C@H](C)NC(=O)[C@H](CC(C)C)NC(=O)[C@H](C)NC1=O (stereo partly shown) [GO-200-2B]
[13]
  induction of cell death: significant induction of cell death

## CQCRRKN [shorter MUC1-C-terminal peptide consisting of L-amino acids]
[1]
  killing tumor cells: active

## GO-209: shorter GO-203 peptide, SEQ ID NO:54 (CQCR)
[6]
  growth of ZR-75-1 breast carcinoma cells: significant inhibition of growth
